{"source": "patent US20230105212A1", "about": "“BIPHENYL DERIVATIVE INHIBITOR, PREPARATION METHOD THEREFOR AND USE THEREOF” (SHANGHAI HANSOH BIOMEDICAL CO., LTD., priority 2020, published 2023)", "key": {"[1]": {"biological_target": "T1, human PD-1/PD-L1 binding (Homo sapiens, UniProt Q9NZQ7)", "T1 construct": "PD-L1-His protein (19 to 238 amino acids) (Abcam #ab167713); purchased Abcam (PD-L1-His); R&D (PD-1-Fc) ab167713; 1086-PD", "T1 sequence (Q9NZQ7 19-238)": "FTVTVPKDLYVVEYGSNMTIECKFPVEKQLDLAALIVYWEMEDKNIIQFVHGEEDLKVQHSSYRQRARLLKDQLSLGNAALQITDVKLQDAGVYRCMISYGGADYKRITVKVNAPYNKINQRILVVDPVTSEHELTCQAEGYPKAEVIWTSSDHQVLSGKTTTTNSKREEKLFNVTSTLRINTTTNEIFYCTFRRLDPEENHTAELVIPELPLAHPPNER", "experiment": "Inhibition of human PD-1/PD-L1 binding (TR-FRET/HTRF)", "conditions": "TR-FRET, PD-L1-His and PD-1-Fc; read-out: PD-1/PD-L1 binding IC50", "excerpt": "Test Embodiment 1: Test of Inhibitory Effect of the Compounds of the Present Disclosure on Human PD-1/PD-L1 Binding\nExperimental purpose: The purpose of this test embodiment was to measure the inhibitory activity of the compounds on human PD-1/PD-L1 binding.\nExperimental reagents: Binding Domain diluent buffer was purchased from Cisbio Company, Cat. No.: 62DLBDDF; MAb Anti-6HIS Eu cryptate Gold was purchased from Cisbio Company with the article number of 61HI2KLA; PAb Anti Human IgG-XL665 was purchased from Cisbio Company with the article number of 61HFCXLB; PD-L1-His protein was purchased from Abcam Company with the article number of ab167713; PD-1-Fc protein was purchased from R&D Company with the article number of 1086-PD; Detection buffer was purchased from Cisbio Company with the article number of 62SDBRDD; 384-well plate was purchased from PerkinElmer Company with the article number of 6007290.\nExperimental method: In order to test the inhibitory activity of the compounds on human PD-1/PD-L1 binding, the method of time-resolved fluorescence resonance energy transfer (TR-FRET) was used in this experiment to test the inhibition of the compounds on human PD-1/PD-L1 binding, and the half inhibitory concentration IC50 of inhibitory activity of the compounds on human PD-1/PD-L1 binding was obtained.\nThis experiment was performed in a 384-well plate with a total reaction volume of 20 μL. Compounds were diluted to different concentrations (10 μM or 1 μM starting, 3-fold dilution, 11 doses) using assay buffer Binding Domain diluent buffer (Cisbio #62DLBDDF), then PD-L1-His protein (19 to 238 amino acids) (Abcam #ab167713) was diluted to 10 nM with assay buffer, and PD-1-Fc protein (25 to 167 amino acids) (R&D #1086-PD) was diluted to 20 nM with assay buffer; the compound, PD-L1 protein and PD-1 protein were added to a 384-well plate respectively, and the total volume was 10 μL, then centrifuged at 1000 rpm for 1 minute to mix well, and incubated for 60 minutes at room temperature. Then 10 μL of a mixed solution of MAb Anti-6HIS Eu cryptate Gold (Cisbio #61HI2KLA) and PAb Anti Human IgG-XL665 (Cisbio #61HFCXLB) diluted by HTRF Detection buffer was added to each well, and centrifuged at 1000 rpm for 1 minute to mix well. The reaction was carried out at room temperature for 3 hours or at 4° C. overnight, then a microplate reader (BioTek Synergy H1) was put into for reading; the excitation wavelength was 340 nm, and the emission wavelengths were 620 nm and 665 nm.\nThe ratio of fluorescence readings at 620 nm and 665 nm (665 nm/620 nm) was calculated, and the inhibition rate was calculated."}, "[2]": {"biological_target": "T2, PD-L1 protein on the surface of MC38-hPDL1 tumor cells (Homo sapiens, UniProt Q9NZQ7)", "T2 construct": "expressed in transfected cells; host or cells: MC38-hPDL1 (mouse colon cancer cells)", "T2 sequence (Q9NZQ7 19-290)": "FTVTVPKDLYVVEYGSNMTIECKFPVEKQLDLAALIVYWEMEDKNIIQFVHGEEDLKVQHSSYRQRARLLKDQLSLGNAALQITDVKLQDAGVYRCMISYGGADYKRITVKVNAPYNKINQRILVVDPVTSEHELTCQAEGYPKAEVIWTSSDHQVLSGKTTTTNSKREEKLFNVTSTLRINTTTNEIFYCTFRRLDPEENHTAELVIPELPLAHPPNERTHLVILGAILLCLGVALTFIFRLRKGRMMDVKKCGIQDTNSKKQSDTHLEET", "experiment": "Induction of endocytosis of PD-L1 on the surface of tumor cells (flow cytometry)", "format": "cell-based", "conditions": "16 hours incubation; for Emax: MC38-hPDL1 cells, read-out: MC38 maximum endocytosis rate; for IC50: inducing endocytosis of PD-L1, MC38-hPDL1 cells, read-out: MC38 IC50", "excerpt": "Test Embodiment 2. Test of the Activity of Compounds of the Present Disclosure on Inducing the Endocytosis of PD-L1 Protein on the Surface of Tumor Cells\nExperimental purpose: The purpose of this test embodiment was to test the activity of the compound on inducing the endocytosis of PD-L1 on the surface of tumor cells.\nExperimental method: In order to test the activity of the compound on inducing the endocytosis of PD-L1, in this experiment, the activity of the compound on inducing the endocytosis of PD-L1 was tested by detecting the change degree of PD-L1 on the tumor cell surface with fluorescently labeled anti-PD-L1 antibody, and the IC50 of activity of the compound on inducing the endocytosis of PD-L1 was obtained.\nThe mouse colon cancer cells MC38-hPDL1 with high expression of hPD-L1 were collected, and adjusted to a suitable density and plated in a 24-well plate, and placed in a 37° C., 5% CO2 incubator to adhere overnight. Compounds were prepared into different concentrations by medium and added to a 24-well plate, and a vehicle control well was set up. After the cells were incubated in a 37° C., 5% CO2 incubator for 16 hours, the 24-well plate was taken out, and MC38-hPDL1 cells with different treatments in the plate were collected. After the cells were washed once with FACS buffer (PBS containing 0.5% BSA), and the cells were prepared to an appropriate density with FACS buffer. PE Mouse Anti-Human CD274 antibody (BD Pharmingen #557924) was added, and the cells were shaken at room temperature and incubated for 30 minutes without light, then the cells were washed twice with FACS buffer, resuspended in 100 μL of PBS, and a flow cytometer was used to detect the fluorescent signal on the cell surface, and the isotype control was set as a negative control.\nThe endocytosis rate of the compounds was calculated from the fluorescence signals of different treatment groups, and the compound concentration and endocytosis rate were fitted by nonlinear regression using GraphPad Prism software, and IC50 values were obtained, as shown in Table 2."}}, "data": [{"compound": "COc1cc(C(=O)Nc2cccc(-c3cccc(NC(=O)c4nc5c(n4C)CCN(C)C5)c3Cl)c2C)ncc1CN1CC(F)(CO)COC1=O", "note": "(centres unmarked) [Embodiment 22, N-(2-Chloro-3′-(5-((5-fluoro-5-(hydroxymethyl)-2-carbonyl-1,3-oxazinan-3-yl)methyl)-4-methoxypicolinamido)-2′-methyl-[1,1′-biphenyl]-3-yl)-1,5-dimethyl-4,5,6,7-tetrahydro-1H-imidazo[4,5-c]pyridine-2-carboxamide]", "values": [{"measurement": "IC50", "setting": "[1]", "result": 5.9, "unit": "nM"}, {"measurement": "Emax", "setting": "[2]", "result": 92, "unit": "%"}, {"measurement": "IC50", "setting": "[2]", "result": 14.5, "unit": "nM"}]}, {"compound": "COc1cc(C(=O)Nc2cccc(-c3cccc(NC(=O)c4nc5c(n4C)CCN(C)C5)c3Cl)c2C)ncc1CNC1CCOCC1", "note": "[Embodiment 35, N-(2-Chloro-3′-(4-methoxy-5-(((tetrahydro-2H-pyran-4-yl)amino)methyl)picolinamido)-2′-methyl-[1,1′-biphenyl]-3-yl)-1,5-dimethyl-4,5,6,7-tetrahydro-1H-imidazo[4,5-c]pyridine-2-carboxamide]", "values": [{"measurement": "IC50", "setting": "[1]", "result": 3.6, "unit": "nM"}, {"measurement": "Emax", "setting": "[2]", "result": 96, "unit": "%"}, {"measurement": "IC50", "setting": "[2]", "result": 1.3, "unit": "nM"}]}, {"compound": "COc1cc(C(=O)Nc2cccc(-c3cccc(NC(=O)c4nc5c(n4C)CCN(C)C5)c3Cl)c2C)ncc1CNC[C@@H]1CCC(=O)N1", "note": "[Embodiment 39, (S)—N-(2-Chloro-3′-(4-methoxy-5-((((5-carbonylpyrrolidin-2-yl)methyl)amino)methyl)picolinamido)-2′-methyl-[1,1′-biphenyl]-3-yl)-1,5-dimethyl-4,5,6,7-tetrahydro-1H-imidazo[4,5-c]pyridine-2-carboxamide]", "values": [{"measurement": "IC50", "setting": "[1]", "result": 5, "unit": "nM"}, {"measurement": "Emax", "setting": "[2]", "result": 97, "unit": "%"}, {"measurement": "IC50", "setting": "[2]", "result": 1.9, "unit": "nM"}]}, {"compound": "C=CCNCc1cnc(C(=O)Nc2cccc(-c3cccc(NC(=O)c4nc5c(n4C)CCN(C)C5)c3Cl)c2C)cc1OC", "note": "[Embodiment 41, N-(3′-(5-((Allylamino)methyl)-4-methoxypicolinamido)-2-chloro-2′-methyl-[1,1′-biphenyl]-3-yl)-1,5-dimethyl-4,5,6,7-tetrahydro-1H-imidazo[4,5-c]pyridine-2-carboxamide]", "values": [{"measurement": "IC50", "setting": "[1]", "result": 4, "unit": "nM"}, {"measurement": "Emax", "setting": "[2]", "result": 90, "unit": "%"}, {"measurement": "IC50", "setting": "[2]", "result": 1.9, "unit": "nM"}]}, {"compound": "COc1cc(C(=O)Nc2cccc(-c3cccc(NC(=O)c4nc5c(n4C)CCN(C)C5)c3Cl)c2C)ncc1CO", "note": "[Embodiment 49, N-(2-Chloro-3′-(5-(2-hydroxymethyl)-4-methoxypicolinamido)-2′-methyl-[1,1′-biphenyl]-3-yl)-1,5-dimethyl-4,5,6,7-tetrahydro-1H-imidazo[4,5-c]pyridine-2-carboxamide]", "values": [{"measurement": "IC50", "setting": "[1]", "result": 5.1, "unit": "nM"}, {"measurement": "Emax", "setting": "[2]", "result": 93, "unit": "%"}, {"measurement": "IC50", "setting": "[2]", "result": 10.7, "unit": "nM"}]}, {"compound": "Cc1c(NC(=O)c2cc(C3CC3)c(CO)cn2)cccc1-c1cccc(NC(=O)c2nc3c(n2C)CCN(C)C3)c1Cl", "note": "[Embodiment 51, N-(2-Chloro-3′-(4-cyclopropyl-5-(hydroxymethyl)picolinamido)-2′-methyl-[1,1′-biphenyl]-3-yl)-1,5-dimethyl-4,5,6,7-tetrahydro-1H-imidazo[4,5-c]pyridine-2-carboxamide]", "values": [{"measurement": "IC50", "setting": "[1]", "result": 5.5, "unit": "nM"}, {"measurement": "Emax", "setting": "[2]", "result": 91, "unit": "%"}, {"measurement": "IC50", "setting": "[2]", "result": 11.8, "unit": "nM"}]}, {"compound": "COc1cc(-c2cccc(-c3cccc(NC(=O)c4nc5c(n4C)CCN(C)C5)c3Cl)c2Cl)ncc1CNC[C@@H]1CCC(=O)N1", "note": "[Embodiment 56, (S)—N-(2,2′-Dichloro-3′-(4-methoxy-5-((((5-carbonylpyrrolidin-2-yl)methyl)amino)methyl)pyridin-2-yl)-[1,1′-biphenyl]-3-yl)-1,5-dimethyl-4,5,6,7-tetrahydro-1H-imidazo[4,5-c]pyridine-2-carboxamide]", "values": [{"measurement": "IC50", "setting": "[1]", "result": 2.1, "unit": "nM"}, {"measurement": "Emax", "setting": "[2]", "result": 91, "unit": "%"}, {"measurement": "IC50", "setting": "[2]", "result": 12.2, "unit": "nM"}]}, {"compound": "COc1cc(-c2cccc(-c3cccc(NC(=O)c4nc5c(n4C)CCN(C)C5)c3Cl)c2C)ncc1CNC1CCOCC1", "note": "[Embodiment 59, N-(2-Chloro-3′-(4-methoxy-5-(((tetrahydro-2H-pyran-4-yl)amino)methyl)pyridin-2-yl)-2′-methyl-[1,1′-biphenyl]-3-yl)-1,5-dimethyl-4,5,6,7-tetrahydro-1H-imidazo[4,5-c]pyridine-2-carboxamide]", "values": [{"measurement": "IC50", "setting": "[1]", "result": 4.7, "unit": "nM"}, {"measurement": "Emax", "setting": "[2]", "result": 85, "unit": "%"}, {"measurement": "IC50", "setting": "[2]", "result": 9.6, "unit": "nM"}]}, {"compound": "COc1cc(NCc2cnc(C(=O)Nc3cccc(-c4cccc(NC(=O)c5nc6c(n5C)CCNC6)c4Cl)c3Cl)cc2OC)ccn1", "note": "[Embodiment 81, N-(2,2′-Dichloro-3′-(4-methoxy-5-(((2-methoxypyridin-4-yl)amino)methyl)picolinamido)-[1,1′-biphenyl]-3-yl)-1-methyl-4,5,6,7-tetrahydro-1H-imidazo[4,5-c]pyridine-2-carboxamide]", "values": [{"measurement": "IC50", "setting": "[1]", "result": 2.4, "unit": "nM"}, {"measurement": "Emax", "setting": "[2]", "result": 86, "unit": "%"}, {"measurement": "IC50", "setting": "[2]", "result": 5, "unit": "nM"}]}, {"compound": "CCN1CCc2c(nc(C(=O)Nc3cccc(-c4cccc(NC(=O)c5cc(OC)c(CNc6ccnc(OC)c6)cn5)c4Cl)c3Cl)n2C)C1", "note": "[Embodiment 82, N-(2,2′-Dichloro-3′-(4-methoxy-5-(((2-methoxypyridin-4-yl)amino)methyl)picolinamido)-[1,1′-biphenyl]-3-yl)-5-ethyl-1-methyl-4,5,6,7-tetrahydro-1H-imidazo[4,5-c]pyridine-2-carboxamide]", "values": [{"measurement": "IC50", "setting": "[1]", "result": 3.9, "unit": "nM"}, {"measurement": "Emax", "setting": "[2]", "result": 85, "unit": "%"}, {"measurement": "IC50", "setting": "[2]", "result": 12, "unit": "nM"}]}, {"compound": "COc1cc(C(=O)Nc2cccc(-c3cccc(NC(=O)c4nc5c(n4C)CCN(C)C5)c3Cl)c2C)ncc1CN[C@H]1CCCNC1=O", "note": "[Embodiment 98, (S)—N-(2-Chloro-3′-(4-methoxy-5-(((2-carbonylpiperidin-3-yl)amino)methyl)picolinamido)-2′-methyl-[1,1′-biphenyl]-3-yl)-1,5-dimethyl-4,5,6,7-tetrahydro-1H-imidazo[4,5-c]pyridine-2-carboxamide]", "values": [{"measurement": "IC50", "setting": "[1]", "result": 6.3, "unit": "nM"}, {"measurement": "Emax", "setting": "[2]", "result": 93, "unit": "%"}, {"measurement": "IC50", "setting": "[2]", "result": 5.6, "unit": "nM"}]}, {"compound": "COc1cc(C(=O)Nc2cccc(-c3cccc(NC(=O)c4nc5c(n4C)CCN(C)C5)c3Cl)c2C)ncc1CNC1(C)COC1", "note": "[Embodiment 99, N-(2-Chloro-3′-(4-methoxy-5-(((3-methyloxetan-3-yl)amino)methyl)picolinamido)-2′-methyl-[1,1′-biphenyl]-3-yl)-1,5-dimethyl-4,5,6,7-tetrahydro-1H-imidazo[4,5-c]pyridine-2-carboxamide]", "values": [{"measurement": "IC50", "setting": "[1]", "result": 4.4, "unit": "nM"}, {"measurement": "Emax", "setting": "[2]", "result": 91, "unit": "%"}, {"measurement": "IC50", "setting": "[2]", "result": 3.9, "unit": "nM"}]}, {"compound": "COc1nc(-c2cccc(-c3cccc(NC(=O)c4nc5c(n4C)CCN(C)C5)c3Cl)c2Cl)ccc1CN1CC2CC(C1)N2C(=O)CC#N", "note": "[Embodiment 208, N-(2,2′-Dichloro-3′-(5-((6-(2-cyanoacetyl)-3,6-diazabicyclo[3.1.1]heptan-3-yl)methyl)-6-methoxypyridin-2-yl)-[1,1′-biphenyl]-3-yl)-1,5-dimethyl-4,5,6,7-tetrahydro-1H-imidazo[4,5-c]pyridine-2-carboxamide]", "values": [{"measurement": "IC50", "setting": "[1]", "result": 9, "unit": "nM"}, {"measurement": "Emax", "setting": "[2]", "result": 81, "unit": "%"}]}]}
